Patent US20130156869A1, “PHARMACEUTICAL COMPOSITION FOR THE TREATMENT OF ALZHEIMER'S DISEASE, METHOD FOR PRODUCING SAME AND USE THEREOF” (Funddacao Arnaldo Vieira de Carvalho, priority 2010, published 2013)

System: patients diagnosed with Alzheimer's disease
Assay: Mini Mental State Examination (MMSE) performed quarterly in a blinded, placebo-controlled study of lithium microdoses
Type: in vivo, human
From the text: Patients clinically diagnosed with Alzheimer's disease by the DSM-IV and NINCDS-ADRDA criteria, and under treatment. The patients were selected by the Mini Mental State Examination (MMSE), which is a questionnaire asked to the patient at each visit, which has a maximum score of 30 points. The Mini-Mental State Examination (MMSE) was designed to be a clinical practice assessment of change in the cognitive status in geriatric patients (Folstein et al, 1975). It examines temporal and spatial orientation, short-term memory (or immediate attention) and recall, calculation, apraxia, and language and visual-spatial skills. It can be used as a screening test for cognitive impairment or as a cognitive assessment of bedside. The Portuguese version of the MMSE (Bertolucci et al, 1994) was considered reliable and adequate for screening and monitoring of ambulatory elderly (Lawrence et al, 2008).
The MMSE includes 11 items, divided into 2 sections. The first requires verbal answers to questions of orientation, memory and attention, the second to questions of reading and writing skills, and it evaluates the skills of appointment, follow verbal and written commands, writing a sentence and copying a drawing (polygons) (Folstein et al, 1975). The cutoff point most often used to indicate a cognitive impairment that deserves further investigation is 24. […] The cutoff point is often adjusted for the education level because a single cut can lose cases among persons with more education, and generate false positives among those with less education. […] Some Brazilian authors studied the measuring characteristics of the scale. Thus, to evaluate the cognitive performance of a population seeking medical screening service of a hospital, Bertolucci applied the MMSE in 530 individuals. We found distinct cutoff points for the diagnosis of cognitive decline, according to the level of education: 13 for illiterates, 18 for low and middle levels of education and 26 for high level of education, with a sensitivity of 82.4%, 75.6% and 80%, and specificity of 97.5%, 96.6% and 95.6%, respectively (Bertolucci et al, 1994). The MMSE was the parameter chosen for inclusion and monitoring of patients of the search for being a test performed on all patients in this clinic and for being a cognitive assessment scale that is practical and useful in the investigation of patients with dementia risk, as in the case of elderly (Almeida, 1998), and it is prescriptive by use and the criteria for dispensing medications adopted by the Ministry of Health. The fact that all medical professionals involved in the evaluation of patients are fully trained and qualified in applying the MMSE was also relevant for this choice. The inclusion of a second test could generate a methodological error that is not measurable. The patients were diagnosed by a neurologist, psychiatrist or geriatrician as suffering from dementia due to Alzheimer's disease, according to the criteria previously mentioned. Patients must present MMSE score equal to or greater than 12 for patients over 4 years of education and greater than or equal to 9 for patients with up to 4 years of education. (Almeida, 1998).
In this preferred embodiment of the invention, the drug tested was the lithium gluconate in a dose of 8.140 mg in 2 mL of solution, which corresponds to 0.28 mg or 0.04 mMol of the metal administered sublingually. Two presentations were used: one containing the lithium gluconate and other containing placebo (anhydrous glucose and purified water). Both presentations were differentiated by a label existing in a group, placebo or lithium, unknown by researchers and by the executors of the MMSE. The patients were selected in a blinded fashion in both groups, with and without stamp by attendance order, being the first with the seal, alternating until the last patient. Formulations were also evaluated with lithium carbonate, respecting the dose of 0.28 mg of metal per dose. […]

Question: For `O=C([O-])[C@H](O)[C@@H](O)[C@H](O)[C@H](O)CO.[Li+]` [Lithium, lithium gluconate], which “MMSE scores vs control by age group” value (61-70 years, F1,62=8.487, p=0.0053, Bonferroni test not significant) is on record?
Answer: significant differences in the treatment factor

Question: What about the “MMSE scores vs control by age group” value (71-80 years, treatment factor F1,302=29.6, p<0.0001) of the same compound?
Answer: stable maintenance of these values

Question: And the “MMSE scores vs control by age group” value (>80 years, treatment factor F1,225=19.53, p<0.0001)?
Answer: better scores on the MMSE compared to control subjects

Question: And the “Evolution of MMSE scores in quarterly reviews” value (all participants, six quarters, treatment factor F1,614=65.81, p<0.0001 vs control)?
Answer: maintenance of these scores

Question: And the MMSE score (first quarter of treatment, 0.28 mg lithium metal per dose, sublingual, P<0.01 vs control)?
Answer: 20.57±0.66

Question: And the MMSE score (quarter 0, immediately before inclusion in the protocol (baseline), n=56, P=0.17 vs control)?
Answer: 19±0.63

Question: What about the MMSE score (quarter 5 (end of study), 0.28 mg lithium metal per dose, sublingual, P<0.001 vs control) of the same compound?
Answer: 20±0.9

Question: And the “Influence of gender on MMSE scores in the treated group” value (treated men vs treated women, p=0.4448 and p=0.9786)?
Answer: no significant differences in treatment and time factors
